In patent publication EP4729529A1, “PREPARATION OF PEPTIDE INHIBITOR OF INTERLEUKIN-23 RECEPTOR AND USE THEREOF” (Xizang Haisco Pharmaceutical Co., Ltd., priority 2023, dated 2024):
Positions of bridges follow the written chain, without caps; N, C: chain ends. Non-standard residues stand in square brackets, D forms with d. Residues, ends and D or L forms follow the SMILES beside them. Phe(4-OC2H4NH2,2,3-(CH2)3) = NCCOc1ccc(C[C@H](N)C(=O)O)c2c1CCC2; Trp(7-Me) = Cc1cccc2c(C[C@H](N)C(=O)O)c[nH]c12; 2Nal = N[C@@H](Cc1ccc2ccccc2c1)C(=O)O; 3Pal = N[C@@H](Cc1cccnc1)C(=O)O; Pen = CC(C)(S)[C@H](N)C(=O)O; Thp = NC1(C(=O)O)CCOCC1; Sar = CNCC(=O)O

Columns and labels:
IL-23α/IL-12β and IL-23R = molecular target: T1, IL-23α/IL-12β and IL-23R (Homo sapiens, UniProt Q5VWK5); assay: IL-23α/IL-12β and IL-23R binding assay (TR-FRET/HTRF); details: inhibition of the binding of IL-23α/IL-12β to IL-23R, TR-FRET; both proteins 0.3 nM
T1 construct: purchased ACRO ILR-H82F3 (IL-23R); ILB-H52W5 (IL-23α/IL-12β)
T1 sequence (Q5VWK5 24-353 limits assumed): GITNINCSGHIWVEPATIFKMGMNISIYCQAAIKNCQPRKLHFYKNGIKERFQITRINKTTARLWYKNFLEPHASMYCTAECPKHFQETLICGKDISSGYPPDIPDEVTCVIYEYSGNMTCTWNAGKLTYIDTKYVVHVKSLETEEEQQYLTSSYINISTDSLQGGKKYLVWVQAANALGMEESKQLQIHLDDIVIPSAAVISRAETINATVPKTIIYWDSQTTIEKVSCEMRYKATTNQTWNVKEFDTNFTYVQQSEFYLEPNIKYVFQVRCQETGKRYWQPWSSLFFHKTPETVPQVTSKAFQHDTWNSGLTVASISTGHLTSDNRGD
Outline: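 TR-FRET with IL-23α/IL-12β and IL-23R each at 0.3 nM in PPI buffer; compound preincubated with IL-23α/IL-12β 60 min at 25°C, then IL-23R and Tb/d2 detection reagents added for 60 min. HTRF 665/620 ratio; IC50 by nonlinear regression.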

[1] = molecular target: (Homo sapiens, UniProt Q5VWK5); assay: IL-23-stimulated pSTAT3 detection assay in PBMCs (ELISA); type: cell-based; details: rhIL23 stimulation 30 minutes, read-out: pSTAT3 inhibition/IC50
Description: 3. IL-23-stimulated pSTAT3 detection assay in PBMCs
Cryopreserved human PBMCs were thawed, and seeded onto a plate previously covered with an anti-CD3 antibody at 1 × 10^6 cells/well. Then, an anti-CD28 antibody was added to the plate, and the cells were incubated at 37°C with 5% CO2 for 5 days. On Day 5, the cells were seeded onto a 96-well plate at a density of 100K cells/well after 4 hours of stimulation by FBS starvation. The diluted Compound was transferred into the 96-well cell culture plate, and the plate was incubated at 37°C with 5% CO2 for 1 hour. rhIL23 (R&D, 1290-IL) was added to the cell culture plate, and the plate was incubated at 37°C with 5% CO2 for 30 minutes. The cells in the wells were lysed on ice with a lysis buffer containing 1× PHOSstop solution for 30 minutes, and the plate was centrifuged at 1000 rpm for 1 minute. Then, the supernatant was transferred into a 96-well ELISA plate, and pSTAT3 ELISA assay was performed according to the instructions of the kit (CST, 7300CA). Absorbance values at […] were read on PHERAstar FSX (BMG LRBTECH). The inhibition rate of the compounds was assessed using the following formula, and IC50 values were obtained by fitting with Graphpad.
Calculation formula of inhibition rate: [formula] • where Data negative: mean of DMSO control group; and • Data positive: mean of non-IL23-stimulated group
The calculation formula of IC50 was as follows: Y = Bottom + (Top−Bottom)/(1+10^(∧)((LogIC50−X)*HillSlope)) [formula] • where X: concentration of compound; and • Y: inhibition rate of compound. Table 3. pSTAT3 inhibition

[2] = Pharmacokinetic test in mice (intravenous and intragastric, plasma LC-MS/MS); type: in vivo; details: male, mouse, Balb/c mice
Description: 4. Pharmacokinetic test in mice
4.1. Experimental animals: Male Balb/c mice (20-25 g, 18 mice/compound) were purchased from Chengdu Dossy Experimental Animals Co., Ltd.
4.2. Experimental design: On the day of the experiment, the Balb/c mice were randomly grouped by body weight. The animals were fasted with water available for 12-14 h one day before the administration, and were fed 4 h after the administration. Table 4. Administration information
Before and after administration, 0.06 mL of blood was taken from the orbit under isoflurane anaesthesia, and placed in an EDTAK2 centrifuge tube. The tube was centrifuged at 5000 rpm at 4°C for 10 min, and plasma was collected. The blood collection time points for the intravenous group and intragastric group were both 0 min, 5 min, 15 min, 30 min, 1 h, 2 h, 4 h, 6 h, 8 h, and 24 h. Before analysis and detection, all samples were stored at -80°C, and the samples were quantitatively analysed by LC-MS/MS. Table 5. Pharmacokinetic parameters of test compounds in mouse plasma

[3] = Test of stability in plasma, human; type: in vitro ADME; details: read-out: Residual rate% at 37°C for 6 h
Description: (§1) 5. Test of stability in plasma
(§2) In this experiment, plasmas of five species, including human, monkey, dog, rat, and mouse, were used to evaluate the stability in plasma of Compound 7.
(§3) A plasma sample was prepared at a concentration level of 1000 ng/mL, and dispensed into EP tubes at time points 0 h and 6 h. Acetonitrile solution containing an internal standard was added directly to the 0 h sample; and the 6 h sample was placed at 37°C for the corresponding time, and then added with an acetonitrile solution containing internal standard. The concentration of the test compound in the sample was measured by the LC-MS/MS method, and the residual rate was calculated from the ratio of the peak areas of the test compound to the internal standard in the time point sample and the 0 h sample.
(§4) Experimental results: At the concentration level of 1000 ng/mL under the test conditions, the residual rates of the test Compounds were shown in Table 6 below. Table 6. Residual rate% at 37°C for 6 h

[4] = Test of stability in plasma, monkey; type: in vitro ADME; details: read-out: Residual rate% at 37°C for 6 h
Description: as §1, §2, §3, §4

[5] = Test of stability in plasma, dog; type: in vitro ADME; details: read-out: Residual rate% at 37°C for 6 h
Description: as §1, §2, §3, §4

[6] = Test of stability in plasma, mouse; type: in vitro ADME; details: read-out: Residual rate% at 37°C for 6 h
Description: as §1, §2, §3, §4

Chain of (Homo sapiens, UniProt Q5VWK5) (Q5VWK5 24-629, other chains not shown): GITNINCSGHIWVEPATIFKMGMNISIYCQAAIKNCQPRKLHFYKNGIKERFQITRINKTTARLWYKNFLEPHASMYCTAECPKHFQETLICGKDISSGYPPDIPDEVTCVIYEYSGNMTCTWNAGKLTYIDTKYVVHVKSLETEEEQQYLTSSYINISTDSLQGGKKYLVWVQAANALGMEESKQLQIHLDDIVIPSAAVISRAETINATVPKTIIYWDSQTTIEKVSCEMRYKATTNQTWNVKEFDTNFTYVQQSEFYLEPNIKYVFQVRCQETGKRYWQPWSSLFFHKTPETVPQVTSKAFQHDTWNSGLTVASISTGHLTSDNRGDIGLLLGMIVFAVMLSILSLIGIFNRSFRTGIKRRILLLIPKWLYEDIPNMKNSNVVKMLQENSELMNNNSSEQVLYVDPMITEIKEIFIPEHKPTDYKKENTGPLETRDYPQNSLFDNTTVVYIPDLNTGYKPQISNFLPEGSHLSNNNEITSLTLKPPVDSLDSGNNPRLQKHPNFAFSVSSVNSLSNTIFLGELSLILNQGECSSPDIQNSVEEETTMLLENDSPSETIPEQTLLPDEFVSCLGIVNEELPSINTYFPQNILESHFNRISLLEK
Chain of (Homo sapiens, UniProt Q5VWK5) (Q9NPF7 20-189 partner, other chains not shown): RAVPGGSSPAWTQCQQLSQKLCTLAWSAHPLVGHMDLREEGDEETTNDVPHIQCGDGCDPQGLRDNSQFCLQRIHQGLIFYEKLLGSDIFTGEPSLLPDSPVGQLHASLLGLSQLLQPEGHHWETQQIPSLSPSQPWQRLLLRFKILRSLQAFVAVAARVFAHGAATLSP
Chain of (Homo sapiens, UniProt Q5VWK5) (P29460 23-328 partner, other chains not shown): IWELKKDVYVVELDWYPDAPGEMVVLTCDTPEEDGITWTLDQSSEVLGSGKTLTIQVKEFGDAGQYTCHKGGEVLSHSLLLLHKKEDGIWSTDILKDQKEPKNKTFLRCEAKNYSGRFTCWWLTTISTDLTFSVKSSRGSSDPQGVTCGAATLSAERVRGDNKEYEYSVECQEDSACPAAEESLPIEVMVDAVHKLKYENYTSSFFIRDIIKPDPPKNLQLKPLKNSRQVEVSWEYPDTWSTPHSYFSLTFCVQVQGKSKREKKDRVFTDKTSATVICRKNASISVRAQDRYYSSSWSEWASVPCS

CC(=O)NCCCC[C@@H]1NC(=O)[C@H](Cc2c[nH]c3c(C)cccc23)NC(=O)[C@H]([C@@H](C)O)NC(=O)[C@H](Cc2c[nH]cn2)NC(=O)[C@@H](NC(C)=O)C(C)(C)SSC(C)(C)[C@@H](C(=O)N[C@@H](Cc2ccc(OCCN)c3c2CCC3)C(=O)N[C@@H](Cc2ccc3ccccc3c2)C(=O)NC2(C(=O)N[C@@H](CCC(=O)O)C(=O)N[C@@H](CC(N)=O)C(=O)N[C@@H](Cc3cccnc3)C(=O)N(C)CC(N)=O)CCOCC2)NC1=O [Compound 7] (Ac-[Pen]HT[Trp(7-Me)]K(Ac)[Pen][Phe(4-OC2H4NH2,2,3-(CH2)3)][2Nal][Thp]EN[3Pal][Sar]-NH2; disulfide 1-6)
IC50 (IL-23α/IL-12β and IL-23R): 0.0539 nM
IC50 [1]: 0.0014 nM
AUC(0-t) ([2]; iv, i.v. (1 mg/kg)): 4720 ± 512 ng·h/mL
clearance ([2]; iv, i.v. (1 mg/kg)): 3.52 ± 0.38 mL/min/kg
Vd ([2]; iv, i.v. (1 mg/kg), read-out: Vdss): 0.261 ± 0.01 L/kg
AUC(0-t) ([2]; po, i.g. (10 mg/kg)): 227 ± 100 ng·h/mL
bioavailability ([2]; po, i.g. (10 mg/kg)): 0.482 ± 0.21%
remaining at 6 h, 1000 ng/mL [3]: > 99%
remaining at 6 h, 1000 ng/mL [4]: > 99%
remaining at 6 h, 1000 ng/mL [5]: > 99%
remaining at 6 h, 1000 ng/mL [6]: > 99%
